Values after ≈ are worked out from the molar mass of the structure shown.

In one test the test system is IBB3394 strain (KKP 2094p). As to the kind of experiment: Antibiotic sensitivity test with E-test strips (Example 11). In kind it is cell-based, Weissella cibaria. Conditions: E-test strips, IST-MRS, 30° C., 48 h, aerobic. As for the experimental part:
The safety assessment of the selected strain of Weissella sp. IBB3394 was carried out by testing antibiotic susceptibility using E-test strips (bioMerieux) in accordance with the manufacturer's recommendations. The tested strain was seeded on IST-MRS solid medium and incubated at 30° C. in aerobic conditions. […] Antibiotic strips were placed on the surface of the plate and the plates were incubated at 30° C. for 48 h in aerobic conditions.
For the compound gentamicin [GM], the “Minimum inhibitory concentration (MIC) IBB3394” value came out at 4 µg/mL.

Staying with this test, now noted: Weissella cibaria, 48 h, read-out: Minimum inhibitory concentration (MIC) IBB3394.
Consider `CN[C@H](CC(C)C)C(=O)N[C@H]1C(=O)N[C@@H](CC(N)=O)C(=O)N[C@H]2C(=O)N[C@H]3C(=O)N[C@H](C(=O)N[C@H](C(=O)O)c4cc(O)cc(O)c4-c4cc3ccc4O)[C@H](O)c3ccc(c(Cl)c3)Oc3cc2cc(c3O[C@@H]2O[C@H](CO)[C@@H](O)[C@H](O)[C@H]2O[C@H]2C[C@](C)(N)[C@H](O)[C@H](C)O2)Oc2ccc(cc2Cl)[C@H]1O` [VA, vancomycin], for which the MIC is above 256 µg/mL.

Staying with this test, now noted: Weissella cibaria; E-test strips, IST-MRS, 30° C., 48 h, aerobic; read-out: Minimum inhibitory concentration (MIC) IBB3394.
Take `[H]/N=C(/N)N[C@H]1[C@H](O)[C@@H](O)[C@H](O[C@@H]2O[C@@H](C)[C@](O)(C=O)[C@H]2O[C@@H]2O[C@@H](CO)[C@H](O)[C@@H](O)[C@@H]2NC)[C@@H](N/C(N)=N\[H])[C@@H]1O` [SM, streptomycin]: the MIC stood at 8 µg/mL (≈ 13.8 µM).

`CC[C@H]1OC(=O)[C@H](C)[C@@H](O[C@H]2C[C@@](C)(OC)[C@@H](O)[C@H](C)O2)[C@H](C)[C@@H](O[C@@H]2O[C@H](C)C[C@H](N(C)C)[C@H]2O)[C@](C)(O)C[C@@H](C)C(=O)[C@H](C)[C@@H](O)[C@]1(C)O` [EM, erythromycin]: the MIC was 0.094 µg/mL (≈ 0.128 µM).

In the case of `CC1(C)S[C@@H]2[C@H](NC(=O)[C@H](N)c3ccccc3)C(=O)N2[C@H]1C(=O)O` [AM, ampicillin], the MIC was 0.38 to 0.5 µg/mL (≈ 1.09 to 1.43 µM).

Turning to `NC[C@H]1O[C@H](O[C@H]2[C@H](O)[C@@H](O[C@H]3O[C@H](CO)[C@@H](O)[C@H](N)[C@H]3O)[C@H](N)C[C@@H]2N)[C@H](O)[C@@H](O)[C@@H]1O` [KM, kanamycin], the MIC turned out to be 16 µg/mL (≈ 33 µM).

For `O=C(N[C@H](CO)[C@H](O)c1ccc([N+](=O)[O-])cc1)C(Cl)Cl` [CL, chloramphenicol], the MIC was in the range of 2 to 3 µg/mL (≈ 6.19 to 9.28 µM).

In the case of `CN(C)[C@@H]1C(O)=C(C(N)=O)C(=O)[C@@]2(O)C(O)=C3C(=O)c4c(O)cccc4[C@@](C)(O)[C@H]3C[C@@H]12` [TC, tetracycline], the MIC turned out to be 2 µg/mL (≈ 4.5 µM).

Turning to `CCC[C@@H]1C[C@@H](C(=O)N[C@@H]([C@H]2O[C@H](SC)[C@H](O)[C@@H](O)[C@H]2O)[C@H](C)Cl)N(C)C1` [CM, clindamycin], the MIC was 0.016 µg/mL (≈ 0.0376 µM).

Values taken from US20260250627A1, “A new bacterial strain Weissella cibaria, a composition comprising it, a pharmaceutical composition for use, a dietary supplement, a probiotic preparation, a bacterial starter culture for making bread, sourdough, bread, a method for the production of bread, a method for microbiological production …” (INSTYTUT BIOCHEMII I BIOFIZVKI PAN, priority 2023, published 2026).
